Results published in patent US20140371074A1, “METHOD TO INCREASE PLANT YIELD” (priority 2012, published 2014).

Columns and labels:
soybean variety L2438R2 = test: Field: seed treatment with 2,4-D mixture 0.01-0.09 ounces per 100 pounds of seed, Laurel, Iowa (Table 7); assay type: in vivo
Method: Previously untreated soybean seeds were treated with between 0.01 ounces to 0.09 ounces of 2,4-D solution per 100 pounds of seed, in which 0.01 ounces is equivalent to 0.0002968 pounds acid equivalent of 2,4-D. The seed variety was L2438R2 and seeds were planted in Laurel, Iowa with a row width of 50 inches. Four rows were planted and the middle two rows were harvested.

[1] = system: soybean cultivars L2711R2X, L3385R2; test: Field 2012: 2,4-D Low Vol 4 + crop oil drizzled onto soil at R1 stage, Laurel, Iowa (Table 2b); assay type: in vivo
Method: Plants were treated by drizzling via low pressure spraying the 2,4-D solution onto the soil along each side of the rows when plants are at the R1 stage of growth. The date of planting was May 15, 2012 and the date of harvest was Oct. 2, 2012 at plots in Alexander, Iowa (Table 2a) and Laurel, Iowa (Table 2b). Plants were grown from Roundup Ready seed and were sprayed with glyphosate for weed control. Plants were treated with between 1X and 5.5X of 2,4-D solution mixed with crop oil at 15.3 ounces of 2,4-D Low Vol 4 plus 0.32 ounces crop oil per gallon, where 1X is equivalent to approximately 0.45 pounds acid equivalent of 2,4-D. Two repetitions were performed at different plots. […] The moisture percentages were used in correcting each yield to a 13% moisture basis.

[2] = 0.01 ounces per 100 pounds of seed
[3] = 0.02 ounces per 100 pounds of seed
[4] = 0.03 ounces per 100 pounds of seed
[5] = 0.04 ounces per 100 pounds of seed
[6] = 0.05 ounces per 100 pounds of seed
[7] = 0.06 ounces per 100 pounds of seed
[8] = 0.07 ounces per 100 pounds of seed
[9] = 0.08 ounces per 100 pounds of seed
[10] = 0.09 ounces per 100 pounds of seed
[11] = 1.0X Rate, L2711R2X, 1X~0.45 lb a.e.
[12] = 1.0X Rate, L3385R2, 1X~0.45 lb a.e.
[13] = 1.5X Rate, L2711R2X, 1X~0.45 lb a.e.
[14] = 1.5X Rate, L3385R2, 1X~0.45 lb a.e.
[15] = 2.0X Rate, L2711R2X, 1X~0.45 lb a.e.
[16] = 2.0X Rate, L3385R2, 1X~0.45 lb a.e.
[17] = 2.5X Rate, L2711R2X, 1X~0.45 lb a.e.
[18] = 2.5X Rate, L3385R2, 1X~0.45 lb a.e.
[19] = 3.0X Rate, L2711R2X, 1X~0.45 lb a.e.
[20] = 3.0X Rate, L3385R2, 1X~0.45 lb a.e.
[21] = 3.5X Rate, L2711R2X, 1X~0.45 lb a.e.
[22] = 3.5X Rate, L3385R2, 1X~0.45 lb a.e.
[23] = 4.0X Rate, L2711R2X, 1X~0.45 lb a.e.
[24] = 4.0X Rate, L3385R2, 1X~0.45 lb a.e.
[25] = 4.5X Rate, L2711R2X, 1X~0.45 lb a.e.
[26] = 4.5X Rate, L3385R2, 1X~0.45 lb a.e.
[27] = 5.0X Rate, L2711R2X, 1X~0.45 lb a.e.
[28] = 5.0X Rate, L3385R2, 1X~0.45 lb a.e.
[29] = 5.5X Rate, L2711R2X, 1X~0.45 lb a.e.
[30] = 5.5X Rate, L3385R2, 1X~0.45 lb a.e.
[31] = Average over 1.0X-3.0X Rates, L2711R2X
[32] = Average over 1.0X-3.0X Rates, L3385R2
[33] = Average over 1.0X-5.5X Rates, L2711R2X
[34] = Average over 1.0X-5.5X Rates, L3385R2
[35] = Overall location average, all rates, both cultivars

O=C(O)COc1ccc(Cl)cc1Cl [2,4-D, 2,4-Dichlorophenoxyacetic acid]
Repetition 1 Total weight (soybean variety L2438R2; [2]): 14.80 pounds | Repetition 1 Yield (soybean variety L2438R2; [2]): 46.49 Bu/acre | Repetition 2 Total weight (soybean variety L2438R2; [2]): 15.60 pounds | Repetition 2 Yield (soybean variety L2438R2; [2]): 48.92 Bu/acre | Total yield (total average yield) (soybean variety L2438R2; [2]): 47.70 Bu/acre | Repetition 1 Total weight (soybean variety L2438R2; [3]): 15.90 pounds | Repetition 1 Yield (soybean variety L2438R2; [3]): 50.21 Bu/acre | Repetition 2 Total weight (soybean variety L2438R2; [3]): 16.10 pounds | Repetition 2 Yield (soybean variety L2438R2; [3]): 50.65 Bu/acre | Total yield (total average yield) (soybean variety L2438R2; [3]): 50.43 Bu/acre | Repetition 1 Total weight (soybean variety L2438R2; [4]): 15.60 pounds | Repetition 1 Yield (soybean variety L2438R2; [4]): 49.26 Bu/acre | Repetition 2 Total weight (soybean variety L2438R2; [4]): 14.90 pounds | Repetition 2 Yield (soybean variety L2438R2; [4]): 47.12 Bu/acre | Total yield (total average yield) (soybean variety L2438R2; [4]): 48.19 Bu/acre | Repetition 1 Total weight (soybean variety L2438R2; [5]): 16.40 pounds | Repetition 1 Yield (soybean variety L2438R2; [5]): 49.46 Bu/acre | Repetition 2 Total weight (soybean variety L2438R2; [5]): 15.90 pounds | Repetition 2 Yield (soybean variety L2438R2; [5]): 47.45 Bu/acre | Total yield (total average yield) (soybean variety L2438R2; [5]): 48.45 Bu/acre | Repetition 1 Total weight (soybean variety L2438R2; [6]): 16.10 pounds | Repetition 1 Yield (soybean variety L2438R2; [6]): 47.48 Bu/acre | Repetition 2 Total weight (soybean variety L2438R2; [6]): 16.00 pounds | Repetition 2 Yield (soybean variety L2438R2; [6]): 49.21 Bu/acre | Total yield (total average yield) (soybean variety L2438R2; [6]): 48.35 Bu/acre | Repetition 1 Total weight (soybean variety L2438R2; [7]): 15.50 pounds | Repetition 1 Yield (soybean variety L2438R2; [7]): 46.85 Bu/acre | Repetition 2 Total weight (soybean variety L2438R2; [7]): 14.90 pounds | Repetition 2 Yield (soybean variety L2438R2; [7]): 45.78 Bu/acre | Total yield (total average yield) (soybean variety L2438R2; [7]): 46.31 Bu/acre | Repetition 1 Total weight (soybean variety L2438R2; [8]): 14.50 pounds | Repetition 1 Yield (soybean variety L2438R2; [8]): 44.99 Bu/acre | Repetition 2 Total weight (soybean variety L2438R2; [8]): 14.90 pounds | Repetition 2 Yield (soybean variety L2438R2; [8]): 46.13 Bu/acre | Total yield (total average yield) (soybean variety L2438R2; [8]): 45.56 Bu/acre | Repetition 1 Total weight (soybean variety L2438R2; [9]): 13.40 pounds | Repetition 1 Yield (soybean variety L2438R2; [9]): 41.93 Bu/acre | Repetition 2 Total weight (soybean variety L2438R2; [9]): 14.30 pounds | Repetition 2 Yield (soybean variety L2438R2; [9]): 44.99 Bu/acre | Total yield (total average yield) (soybean variety L2438R2; [9]): 43.46 Bu/acre | Repetition 1 Total weight (soybean variety L2438R2; [10]): 14.90 pounds | Repetition 1 Yield (soybean variety L2438R2; [10]): 46.40 Bu/acre | Repetition 2 Total weight (soybean variety L2438R2; [10]): 14.00 pounds | Repetition 2 Yield (soybean variety L2438R2; [10]): 43.83 Bu/acre | Total yield (total average yield) (soybean variety L2438R2; [10]): 45.12 Bu/acre | Repetition 1 Total weight (soybean variety L2438R2; Average over 0.01-0.09 ounces): 15.23 pounds | Repetition 1 Yield (soybean variety L2438R2; Average over 0.01-0.09 ounces): 47.01 Bu/acre | Repetition 2 Total weight (soybean variety L2438R2; Average over 0.01-0.09 ounces): 15.18 pounds | Repetition 2 Yield (soybean variety L2438R2; Average over 0.01-0.09 ounces): 47.12 Bu/acre | Total yield (total average yield) (soybean variety L2438R2; Average over 0.01-0.09 ounces): 47.06 Bu/acre | Average Yield [1, 11]: 64.93 Bu/A | Repetition 1 Weight [1, 11]: 5.6 Lbs | Repetition 1 Yield [1, 11]: 62.69 Bu/A | Repetition 2 Weight [1, 11]: 6.0 Lbs | Repetition 2 Yield [1, 11]: 67.16 Bu/A | Average Yield [1, 12]: 72.50 Bu/A | Repetition 1 Weight [1, 12]: 6.7 Lbs | Repetition 1 Yield [1, 12]: 73.40 Bu/A | Repetition 2 Weight [1, 12]: 6.5 Lbs | Repetition 2 Yield [1, 12]: 71.60 Bu/A | Average Yield [1, 13]: 67.20 Bu/A | Repetition 1 Weight [1, 13]: 6.6 Lbs | Repetition 1 Yield [1, 13]: 73.88 Bu/A | Repetition 2 Weight [1, 13]: 5.4 Lbs | Repetition 2 Yield [1, 13]: 60.51 Bu/A | Average Yield [1, 14]: 75.70 Bu/A | Repetition 1 Weight [1, 14]: 6.8 Lbs | Repetition 1 Yield [1, 14]: 74.34 Bu/A | Repetition 2 Weight [1, 14]: 6.9 Lbs | Repetition 2 Yield [1, 14]: 77.07 Bu/A | Average Yield [1, 15]: 63.41 Bu/A | Repetition 1 Weight [1, 15]: 5.7 Lbs | Repetition 1 Yield [1, 15]: 64.01 Bu/A | Repetition 2 Weight [1, 15]: 5.6 Lbs | Repetition 2 Yield [1, 15]: 62.82 Bu/A | Average Yield [1, 16]: 70.93 Bu/A | Repetition 1 Weight [1, 16]: 6.3 Lbs | Repetition 1 Yield [1, 16]: 70.22 Bu/A | Repetition 2 Weight [1, 16]: 6.4 Lbs | Repetition 2 Yield [1, 16]: 71.64 Bu/A | Average Yield [1, 17]: 63.35 Bu/A | Repetition 1 Weight [1, 17]: 5.7 Lbs | Repetition 1 Yield [1, 17]: 63.87 Bu/A | Repetition 2 Weight [1, 17]: 5.6 Lbs | Repetition 2 Yield [1, 17]: 62.82 Bu/A | Average Yield [1, 18]: 71.91 Bu/A | Repetition 1 Weight [1, 18]: 6.3 Lbs | Repetition 1 Yield [1, 18]: 70.60 Bu/A | Repetition 2 Weight [1, 18]: 6.5 Lbs | Repetition 2 Yield [1, 18]: 73.23 Bu/A | Average Yield [1, 19]: 63.84 Bu/A | Repetition 1 Weight [1, 19]: 5.5 Lbs | Repetition 1 Yield [1, 19]: 61.50 Bu/A | Repetition 2 Weight [1, 19]: 5.9 Lbs | Repetition 2 Yield [1, 19]: 66.19 Bu/A | Average Yield [1, 20]: 71.91 Bu/A | Repetition 1 Weight [1, 20]: 6.6 Lbs | Repetition 1 Yield [1, 20]: 74.12 Bu/A | Repetition 2 Weight [1, 20]: 6.2 Lbs | Repetition 2 Yield [1, 20]: 69.70 Bu/A | Repetition 1 Weight [1, 21]: 5.7 Lbs | Repetition 1 Yield [1, 21]: 63.74 Bu/A | Average Yield ([1]; 3.5X Rate, L2711R2X, 1X~0.45 lb a.e., repetition 1 only): 63.74 Bu/A | Repetition 1 Weight [1, 22]: 6.3 Lbs | Repetition 1 Yield [1, 22]: 68.94 Bu/A | Average Yield ([1]; 3.5X Rate, L3385R2, 1X~0.45 lb a.e., repetition 1 only): 68.94 Bu/A | Repetition 1 Weight [1, 23]: 6.1 Lbs | Repetition 1 Yield [1, 23]: 68.28 Bu/A | Average Yield ([1]; 4.0X Rate, L2711R2X, 1X~0.45 lb a.e., repetition 1 only): 68.28 Bu/A | Repetition 1 Weight [1, 24]: 6.7 Lbs | Repetition 1 Yield [1, 24]: 74.76 Bu/A | Average Yield ([1]; 4.0X Rate, L3385R2, 1X~0.45 lb a.e., repetition 1 only): 74.76 Bu/A | Repetition 1 Weight [1, 25]: 6.3 Lbs | Repetition 1 Yield [1, 25]: 70.60 Bu/A | Average Yield ([1]; 4.5X Rate, L2711R2X, 1X~0.45 lb a.e., repetition 1 only): 70.60 Bu/A | Repetition 1 Weight [1, 26]: 6.6 Lbs | Repetition 1 Yield [1, 26]: 72.78 Bu/A | Average Yield ([1]; 4.5X Rate, L3385R2, 1X~0.45 lb a.e., repetition 1 only): 72.78 Bu/A | Repetition 1 Weight [1, 27]: 5.9 Lbs | Repetition 1 Yield [1, 27]: 66.11 Bu/A | Average Yield ([1]; 5.0X Rate, L2711R2X, 1X~0.45 lb a.e., repetition 1 only): 66.11 Bu/A | Repetition 1 Weight [1, 28]: 6.6 Lbs | Repetition 1 Yield [1, 28]: 74.12 Bu/A | Average Yield ([1]; 5.0X Rate, L3385R2, 1X~0.45 lb a.e., repetition 1 only): 74.12 Bu/A | Repetition 1 Weight [1, 29]: 5.4 Lbs | Repetition 1 Yield [1, 29]: 60.45 Bu/A | Average Yield ([1]; 5.5X Rate, L2711R2X, 1X~0.45 lb a.e., repetition 1 only): 60.45 Bu/A | Repetition 1 Weight [1, 30]: 6.3 Lbs | Repetition 1 Yield [1, 30]: 70.37 Bu/A | Average Yield ([1]; 5.5X Rate, L3385R2, 1X~0.45 lb a.e., repetition 1 only): 70.37 Bu/A | Repetition 2 Weight [1, 31]: 5.7 Lbs | Repetition 2 Yield [1, 31]: 63.90 Bu/A | Repetition 2 Weight [1, 32]: 6.5 Lbs | Repetition 2 Yield [1, 32]: 72.65 Bu/A | Average Yield [1, 33]: 65.19 Bu/A | Repetition 1 Weight [1, 33]: 5.9 Lbs | Repetition 1 Yield [1, 33]: 65.51 Bu/A | Average Yield [1, 34]: 72.39 Bu/A | Repetition 1 Weight [1, 34]: 6.5 Lbs | Repetition 1 Yield [1, 34]: 72.36 Bu/A | Average Yield [1, 35]: 68.79 Bu/A | Repetition 1 Weight [1, 35]: 6.2 Lbs | Repetition 1 Yield [1, 35]: 68.94 Bu/A | Repetition 2 Weight [1, 35]: 6.1 Lbs | Repetition 2 Yield [1, 35]: 68.27 Bu/A
